# Assay results published in patent publication EP4699605A1, “USE OF NOVEL COMPOUND FOR TREATING INTRACTABLE DISEASES” (YJ Cerapeutics Inc., priority 2023, dated 2024).
# Legend:
# ZO-1 and occludin = test: Urothelial tight junction proteins in bladder after SCI (Western blot, immunofluorescence); assay type: in vivo, Sprague-Dawley rats
# Excerpt: (§1) When bladder dysfunction occurred due to spinal cord injury, cystitis, etc., a decrease in tight junction protein in the urothelium in contact with urine occurred, which increased the permeability of the bladder wall to introduce the harmful substances into the tissue, and caused the death of the urothelium serving as a barrier, and an increase in inflammatory response in the bladder. In order to determine what effect the compound YJ102 of the present disclosure had on these pathological processes, the expression of tight junction proteins ZO-1 and occludin was confirmed by Western blot analysis and immunofluorescence staining, and the introduction of neutrophils and macrophages into the bladder was confirmed by immunofluorescence staining. Specifically, the cut bladder tissue sections were frozen in liquid nitrogen, ground in a mortar and pestle to be completely lysed, and homogenized by adding Lysis Buffer [50 mM Tris-HCl (pH 7.4), 150 mM NaCl, 2 mM MgCl2, 0.1% NP40]. The homogenized tissue sections were transferred to a microcentrifuge tube, rock at 4°C for 20 minutes, and then centrifuged at 25,000 × g for 10 minutes. The supernatant was transferred to a new microcentrifuge, the protein concentrations were measured using a BCA kit, and then samples for Western blot were prepared by adding a 1X sample buffer and boiling for 5 minutes. For Western blot, the same amounts of proteins were loaded onto SDS-PAGE, electrophored, and then transferred to a nitrocellulose membrane, reacted with primary antibodies Occludin (Invitrogen), ZO-1 (Invitrogen), ED-1 (Serotec), and β-actin (Sigma), and then blotted with secondary antibodies. In addition, for immunofluorescence staining, 10 µm-thick bladder tissue sections were treated with primary antibodies ZO-1 (Invitrogen), Occludin (Invitrogen), MPO (DAKO), and ED-1 (Serotec), respectively, and reacted according to a manufacturer's protocol, and then color-developed with secondary antibodies (Jackson immunoresearh).
# [1] = test system: neutrophils and macrophages; test: Introduction of neutrophils and macrophages into the bladder after SCI (immunofluorescence); assay type: in vivo, Sprague-Dawley rats
# Excerpt: as §1, with “For Western blot, the same amounts of proteins were loaded onto SDS-PAGE, electrophored, and then transferred to a nitrocellulose membrane, reacted with primary antibodies Occludin (Invitrogen), ZO-1 (Invitrogen), ED-1 (Serotec), and β-actin (Sigma), and then blotted with secondary antibodies. In addition, for immunofluorescence staining, 10 µm-thick bladder tissue sections were treated with primary antibodies ZO-1 (Invitrogen), Occludin (Invitrogen), MPO (DAKO), and ED-1 (Serotec), respectively, and reacted according to a manufacturer's protocol, and then color-developed with secondary antibodies (Jackson immunoresearh).” left out
# urothelial cells = test: Urothelial cell apoptosis in bladder after SCI (TUNEL, cleaved caspase-3, UPIII Western blot); assay type: in vivo, Sprague-Dawley rats; conditions: day 3 after spinal cord injury
# Excerpt: (§2) The effect of YJ102 on urothelial cell apoptosis in bladder tissue after spinal cord injury was confirmed by TUNEL staining, and the protein levels of cleaved caspase-3 indicating caspase-3 activation, and UPIII as a urothelial marker were confirmed by Western blot analysis using p75 (Promega), cleaved caspase-3 (Cell signaling technology), and UPIII (Abcam) as primary antibodies. In addition, in order to confirm whether the mechanism of apoptosis was caused by a p75 neurotrophin receptor, which was involved in urothelial apoptosis, the expression level of p75 was confirmed by RT-PCR, Western blot analysis, and immunofluorescence staining. For RT-PCR analysis, the obtained bladder tissue sections were frozen in liquid nitrogen, and ground in a mortar and pestle to be completely lysed, and then RNA was isolated using a TRIZOL Reagent (Invitrogen) according to a manual, and 20 µl of the total mixture was prepared by using 1 µg of total RNA, and cDNA was synthesized using MMLV reverse transcriptase (Invitrogen).
# [2] = test system: p75 neurotrophin receptor; test: p75 expression in urothelium after SCI (RT-PCR, Western blot); assay type: in vivo, Sprague-Dawley rats; conditions: urothelium after spinal cord injury (days 1 and 7)
# Excerpt: as §2
# Raw 264.7 cell line = test: Inflammatory factor mRNA in LPS-treated macrophage cell line (RT-PCR); assay type: cell-based; conditions: LPS treatment
# Protocol: In order to determine whether YJ102 affected the production of proNGF as a ligand of p75, the expression of proNGF in the bladder was confirmed by RT-PCR, Western blot analysis, and immunofluorescence staining. In addition, for further verification, a macrophage cell line Raw 264.7 (Korea Cell Line Bank, Seoul, Korea) was stimulated with 1 µg/ml of LPS, and the effect of YJ102 on the production of proNGF was investigated. At this time, YJ102 was dissolved in DMSO and treated 30 minutes before LPS treatment.
# To confirm the effect of YJ102 on the expression of inflammatory factors in the bladder after spinal cord injury, the expression of inflammatory cytokines and chemokines, COX-2, iNOS, IL-6, IL-1β, MIP-1α, MIP-1β, MIP-2α, and Gro-α in bladder tissue was confirmed by RT-PCR analysis and Western blot analysis using the primers in Table 2 above. In addition, even in the Raw 264.7 cell line, the expression was verified by RT-PCR analysis.
# [3] = test system: IMQ psoriasis animal model; test: PASI scores (erythema, scaling) in IMQ psoriasis animal model; assay type: in vivo, C57BL/6 mouse; conditions: 5 mg/kg intraperitoneally on Day 2, Day 3, Day 4, vs Vehicle group
# Protocol: (§3) Psoriasis caused by excessive production of skin cells was a chronic skin disease associated with various factors, including autoimmune diseases, and its symptoms included red and thickened skin and abnormally occurring scaling. […] Specifically, the back region of a C57BL/6 mouse (male, 18 to 20 g, 8 weeks) (Daehan Biolink, Eumseong, Korea) was shaved to remove hair, and then applied with IMQ cream (83 mg/day) (5%) for consecutive 5 days from Day 0 to Day 4 to induce psoriasis-like skin inflammation, and a normal control mouse (Sham) was applied with Vaseline cream (FIG. 16A).
# In order to confirm the effect of YJ102 (Chemical Formula 1), a compound of the present disclosure, on psoriasis, YJ102 dissolved in DMSO, methyl pyrrolidinone, and water (1 : 1.5 : 1) was administered intraperitoneally (5 mg/kg) for a total of 3 days on Day 2, Day 3, and Day 4, and the Vehicle group was administered in the same amount of a solution of DMSO, methyl pyrrolidinone, and water (1 : 1.5 : 1) (FIG. 16A). To assess daily skin changes, PASI scores were used for erythema and scaling. The PASI score was evaluated as a severity scale of 0 to 4, in which 0 meant none, 1 meant mild, 2 meant moderate, 3 meant severe, and 4 meant very severe. (PASI Reference: Yashpal Manchanda, Abhishek De, Sudip Das, and Disha Chakraborty. Disease Assessment in Psoriasis. Indian J Dermatol. 2023 May-Jun; 68 (3): 278-281.)
# [4] = test system: IMQ psoriasis animal model; test: Epidermal layer thickness (H&E) in IMQ psoriasis animal model; assay type: in vivo, C57BL/6 mouse
# Protocol: as §3
# On day 6, the skin tissue of the psoriasis mouse model was stained with Hematoxyline & Eosin, and the epidermal layer thickness was measured. Specifically, on Day 6, the skin of the mouse back was extracted, immersed in 4% paraformaldehyde for 24 hours to fix the tissue, and then paraffin blocks were made to prepare paraffin tissue sections with a thickness of 5 µm. In order to measure the thickness of the epidermal layer, paraffin tissue was stained with Hematoxylene & Eosin (Abcam) according to the manufacturer's protocol, and five sections of the epidermal layer from each mouse were photographed at 200x magnification using an optical microscope. The epidermal layer thickness was measured in tissues from a total of five mice (a total of 25 sections) and the average value was calculated.
# [5] = day 1 after spinal cord injury (SCI 1d), Western blot
compound,measurement,setting,value
CCc1ccc(N(C(=O)COC)c2nc3cc(Cl)ccc3o2)cc1 [YJ102],reduction in Occludin in the urothelium,"ZO-1 and occludin; after spinal cord injury, immunofluorescence staining",inhibited
same,reduction of the amount of Occludin,ZO-1 and occludin; [5],significantly inhibited
same,reduction of the amount of ZO-1,ZO-1 and occludin; [5],significantly inhibited
same,introduction of MPO-positive neutrophils into the bladder,[1]; after spinal cord injury (day 1),significantly inhibited
same,introduction of ED-1-positive macrophages into the bladder,[1]; after spinal cord injury (day 7),significantly inhibited
same,reduction of the level of UPIII (urothelial loss),urothelial cells; Western blot,inhibited
same,caspase-3 activation,urothelial cells; cleaved caspase-3 Western blot,inhibited
same,number of TUNEL-positive cells in the urothelium,urothelial cells; vs Vehicle group,significantly reduced
same,p75 expression,[2],significantly reduced
same,"mRNA levels of IL-1β, TNF-α, IL-6, iNOS, and COX-2",Raw 264.7 cell line,significantly reduced
same,degree of erythema (PASI score),[3],significantly lower
same,degree of scaling (PASI score),[3],significantly lower
same,reduction of epidermal layer thickness compared to the Vehicle group,[4]; Day 6,approximately 35%
same,epidermal layer thickness,"[4]; Day 6, 5 mg/kg intraperitoneally, Sham 36.6 ± 2.3, Vehicle 141.3 ± 7.5",89.8 ± 6.8 µm
same,number of cells introduced into the dermal layer,"[4]; Day 6, skin tissue H&E",decreased to the Sham level
